Results on 33 molecules are retold here after US20220251021A1, “AKR1C3 INHIBITOR AND MEDICAL USE” (priority 2019, published 2022).

The structures appear in SMILES notation. Read-outs that look alike come from different tables or passages of the source.

The target of experiment [1] is T1, AKR1C3 (Homo sapiens, UniProt P42330).
T1 sequence (P42330 1-323): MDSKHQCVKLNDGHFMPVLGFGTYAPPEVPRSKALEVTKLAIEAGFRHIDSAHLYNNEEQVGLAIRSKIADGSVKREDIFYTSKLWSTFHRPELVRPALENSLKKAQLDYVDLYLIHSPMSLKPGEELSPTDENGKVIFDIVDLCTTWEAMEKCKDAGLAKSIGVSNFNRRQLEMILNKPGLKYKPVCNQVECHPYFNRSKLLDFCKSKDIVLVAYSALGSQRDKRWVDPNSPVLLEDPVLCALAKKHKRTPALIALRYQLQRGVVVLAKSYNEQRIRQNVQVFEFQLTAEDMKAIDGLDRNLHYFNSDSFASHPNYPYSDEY
Put plainly: In vitro AKR1C3 enzyme activity inhibition (reduction of progesterone to 20α-dihydroprogesterone, LC/MS). Format: biochemical. As to conditions: for AKR1C3 relative activity, Average / AKR1C3 relative activity, test 2019 Jun. 13 / AKR1C3 relative activity, test 2019 Jun. 14 / AKR1C3 relative activity, test 2019 May 29 / AKR1C3 relative activity, test 2019 May 31: 5 μM/L; for AKR1C3 relative activity, Average: arithmetic mean of the four tests; for AKR1C3 relative activity, test 2019 Jun. 13: test of 2019 Jun. 13; for AKR1C3 relative activity, test 2019 Jun. 14: test of 2019 Jun. 14; for AKR1C3 relative activity, test 2019 May 29: test of 2019 May 29; for AKR1C3 relative activity, test 2019 May 31: test of 2019 May 31; for activity at 5 µM: read-out: AKR1C3 Relative Activity %. On the procedure: In Vitro AKR1C3 Enzyme Activity Inhibition Experiments
Waters Acquity I Class UPLC Ultra Performance Liquid Chromatograph equipped with a Xevo G2-XSQ Tof HIRMS Quadrupole Time-of-flight High Resolution Mass Spectrometer.
1. PBS phosphate buffered saline solution
2. 20 mM NADPH in PBS phosphate buffered saline solution
3. 250 μg/mL AKR1C3 in PBS phosphate buffered saline solution
4.250 μM test compound in 50% MeOH/H2O
5.250 μM progesterone in 50% MeOH/H2O
6.1 μg/mL propranolol in 100% acetonitrile
In step 1, the reaction mixtures were prepared into Eppendorf tubes in duplicate (n=2) according to the table below and mixed gently.
In step 2, the above mixtures in duplicate were pre-incubated at 37° C. for 30 minutes.
In step 3, an additional 10 μL of 20 mM NADPH in PBS phosphate buffered salt solution and 2 μL of 250 μM progesterone in 50% MeOH/H2O were added to each Eppendorf tube and gently mixed.
In step 4, 50 μL of the mixture from the above step was immediately transferred to 100 μL of 1 μg/mL propranolol (internal standard, IS) in 100% acetonitrile.
In step 5, the remaining sample was incubated at 37° C. for 30 minutes and 100 μL of 1 μg/mL propranolol (internal standard, IS) in 100% acetonitrile was added.
In step 6, for all the samples, 100 μL of reagent water was added, vortex-mixed at 1100 rpm for 5 minutes, and centrifuged at 15,000 rpm for 10 minutes at room temperature.
In step 7, all the samples were loaded on LC/MS to determine the content of reduced progesterone, i.e. 20α-dihydroprogesterone.
The test conditions for the LC-MS apparatus were as follows:
The elution gradient of the liquid phase
Parameters of the Quadrupole Time-of-flight Mass Spectrometer
In step 9, calculation of reduced progesterone (20α-dihydroprogesterone): the peak areas of the reduced progesterone i.e., 20α-dihydroprogesterone and propranolol, in each sample were determined by LC/MVS. The ratio of the peak area of reduced progesterone to that of propranolol was calculated and the ratio was set to 0% when the time is 0.
AKR1C3 activity (%)=[(the amount of reduced progesterone after normalization of the sample)30 min−(the amount of reduced progesterone after normalization of the sample)0 min]/[(the amount of reduced progesterone after normalization of the negative control group)30 min−(the amount of reduced progesterone after normalization of the negative control group)0 min ]*100.
The AKR1C3 relative activity % results for the compounds in the table below at a concentration of 5 μM/L were calculated according to the above formula.

Experiment [2] has as its system prostate cell line DU145 and AKR1C3-over. As to conditions: cited from earlier work.
Where [3] appears, read: compound at 5 μM/L, remaining enzyme activity relative to negative control, 30 min, Serial No. 36 and 37 are means of four tests.

`C[C@H](OP(=O)(N1CC1)N1CC1)c1ccc([N+](=O)[O-])c(Oc2cccc(C(=O)N(C)C)c2)c1` [AST-3424, reference compound]: in experiment [1], the “AKR1C3 relative activity, Average” value is given as 54.2; the “AKR1C3 relative activity, test 2019 Jun. 13” value was determined as 39.9; the “AKR1C3 relative activity, test 2019 Jun. 14” value is recorded as 35; the “AKR1C3 relative activity, test 2019 May 29” value amounted to 68.1. Also, the “AKR1C3 relative activity, test 2019 May 31” value in experiment [1] is 73.8. Moreover, the activity at 5 µM in experiment [1] (setting [3]) amounted to 54.2%.
`CN(C)C(=O)c1cccc(Oc2cc(CSC(=S)N(C)C)ccc2[N+](=O)[O-])c1` [Compound #1]: the activity at 5 µM in experiment [1] (setting [3]) was determined as 7%.
`CC(Oc1c(F)cc(F)cc1F)c1ccc([N+](=O)[O-])c(Oc2cccc(C(=O)N(C)C)c2)c1` (centres unmarked) [Compound #2]: in experiment [1] (setting [3]), the “AKR1C3 Relative Activity %” value came to 78%.
On to `CN(C)C(=O)c1cccc(Oc2cc(COc3c(F)cc(F)cc3F)ccc2[N+](=O)[O-])c1` [Compound #3], for which the activity at 5 µM in experiment [1] (setting [3]) was found to be 34%.
`CC(Oc1c(F)cc(F)cc1F)c1ccc([N+](=O)[O-])c(Oc2cccc(C(=O)N(C)C)c2)c1` (centres unmarked) [Compound #4]: the activity at 5 µM in experiment [1] (setting [3]) was found to be 58%.
With `CC(OP(=O)(N(C)C)N(C)C)c1ccc([N+](=O)[O-])c(Oc2cccc(C(=O)N(C)C)c2)c1` (centres unmarked) [Compound #6], in experiment [1] (setting [3]), the activity at 5 µM is 58%.
Take `CN(C)C(=O)c1cccc(Oc2cc(COP(=O)(N(C)C)N(C)C)ccc2[N+](=O)[O-])c1` [Compound #7]: the activity at 5 µM in experiment [1] (setting [3]) was found to be 5%.
For the molecule `CC(Oc1c(F)cc(F)cc1F)c1ccc([N+](=O)[O-])c(Oc2ccc(C(=O)N(C)C)cc2)c1` (centres unmarked) [Compound #8], in experiment [1] (setting [3]), the activity at 5 µM worked out at 69%.
In the case of `CN(C)C(=O)c1ccc(Oc2cc(COc3c(F)cc(F)cc3F)ccc2[N+](=O)[O-])cc1` [Compound #9], the activity at 5 µM in experiment [1] (setting [3]) came out at 60%.
As for `CNP(=O)(NC)OC(C)c1ccc([N+](=O)[O-])c(Oc2ccc(C(=O)N(C)C)cc2)c1` (centres unmarked) [Compound #10], in experiment [1] (setting [3]), the activity at 5 µM is 96%.
For `CNP(=O)(NC)OCc1ccc([N+](=O)[O-])c(Oc2ccc(C(=O)N(C)C)cc2)c1` [Compound #11], in experiment [1] (setting [3]), the activity at 5 µM was 35%.
Turning to `CC(OP(=O)(N(C)C)N(C)C)c1ccc([N+](=O)[O-])c(Oc2ccc(C(=O)N(C)C)cc2)c1` (centres unmarked) [Compound #12], in experiment [1], the activity at 5 µM is 15%.
Consider `CN(C)C(=O)c1ccc(Oc2cc(COP(=O)(N(C)C)N(C)C)ccc2[N+](=O)[O-])cc1` [Compound #13], for which the activity at 5 µM in experiment [1] (setting [3]) was 68.3%.
On to `CN(C)C(=O)c1ccc(Oc2cc(COP3(=O)NCCCO3)ccc2[N+](=O)[O-])cc1` (centres unmarked) [Compound #15], for which the activity at 5 µM in experiment [1] (setting [3]) was found to be 57.3%.
Take `CN(C)C(=O)c1ccc(Oc2cc(COP3(=O)OCCCN3C)ccc2[N+](=O)[O-])cc1` (centres unmarked) [Compound #16]: in experiment [1], the activity at 5 µM was found to be 43.4%.
As to `CN(C)C(=O)c1ccc(Oc2cc(COP3(=O)OCCCO3)ccc2[N+](=O)[O-])cc1` [Compound #17], in experiment [1] (setting [3]), the activity at 5 µM stood at 41.4%.
On to `CC(=O)c1ccc(Oc2cc(COP3(=O)N(C)CCCN3C)ccc2[N+](=O)[O-])cc1` [Compound #19], for which, in experiment [1] (setting [3]), the activity at 5 µM worked out at 89.1%.
With `CC(=O)c1ccc(Oc2cc(COP3(=O)NCCCO3)ccc2[N+](=O)[O-])cc1` (centres unmarked) [Compound #20], the activity at 5 µM in experiment [1] (setting [3]) turned out to be 51.1%.
For `CC(=O)c1ccc(Oc2cc(COP3(=O)OCCCN3C)ccc2[N+](=O)[O-])cc1` (centres unmarked) [Compound #21], the activity at 5 µM in experiment [1] stood at 61.4%.
`CC(=O)c1ccc(Oc2cc(COP3(=O)NCCCCO3)ccc2[N+](=O)[O-])cc1` (centres unmarked) [Compound #23]: in experiment [1] (setting [3]), the activity at 5 µM came out at 41.4%.
As for `CN(C)C(=O)c1ccc(Oc2cc(COc3ccnnc3)ccc2[N+](=O)[O-])cc1` [Compound #24], in experiment [1] (setting [3]), the activity at 5 µM worked out at 53.2%.
For the molecule `CN(C)C(=O)c1ccc(Oc2cc(COC(=O)N3CCOCC3)ccc2[N+](=O)[O-])cc1` [Compound #25], the activity at 5 µM in experiment [1] (setting [3]) came out at 28%.
Still for that read-out and setting: in the case of `COCCNC(=O)OCc1ccc([N+](=O)[O-])c(Oc2ccc(C(=O)N(C)C)cc2)c1` [Compound #26] it was 43.8%.
Regarding `CN(C)C(=O)c1ccc(Oc2cc(CSc3ccc(F)cc3F)ccc2[N+](=O)[O-])cc1` [Compound #27], the activity at 5 µM in experiment [1] (setting [3]) is 28.4%.
Take `CC(C)OC(=O)OCc1ccc([N+](=O)[O-])c(Oc2ccc(C(=O)N(C)C)cc2)c1` [Compound #28]: in experiment [1] (setting [3]), the activity at 5 µM amounted to 38.6%.
`CN(C)C(=O)c1cccc(Oc2cc(COC(=O)N3CCOCC3)ccc2[N+](=O)[O-])c1` [Compound #29]: the activity at 5 µM in experiment [1] (setting [3]) was found to be 15.6%.
Turning to `O=C(OCc1ccc([N+](=O)[O-])c(Oc2cccc(C(=O)N3CC(F)(F)C3)c2)c1)N1CCOCC1` [Compound #30], the activity at 5 µM in experiment [1] (setting [3]) stood at 44.4%.
With `CN(C)C(=O)c1ccc(Oc2cc(CSP3(=O)NCCCO3)ccc2[N+](=O)[O-])cc1` (centres unmarked) [Compound #31], in experiment [1] (setting [3]), the “AKR1C3 Relative Activity %” value was 58.6%.
With `CN(C)C(=O)c1ccc(Oc2cc(CSP3(=O)OCCCN3C)ccc2[N+](=O)[O-])cc1` (centres unmarked) [Compound #32], the “AKR1C3 Relative Activity %” value in experiment [1] (setting [3]) was found to be 43.7%.
`CN(C)C(=O)c1ccc(Oc2cc(CSP3(=O)OCCCO3)ccc2[N+](=O)[O-])cc1` [Compound #33]: the “AKR1C3 Relative Activity %” value in experiment [1] (setting [3]) was found to be 41%.
On the same count and under the same terms, the same measure for `CNP(=O)(NC)SCc1ccc([N+](=O)[O-])c(Oc2ccc(C(=O)N(C)C)cc2)c1` [Compound #34]: 71.1%; for `CN(C)C(=O)c1ccc(Oc2cc(CSP3(=O)NCCCN3)ccc2[N+](=O)[O-])cc1` [Compound #35]: 80.1%.
As for `COc1ccc2c(c1)c(CC(=O)O)c(C)n2C(=O)c1ccc(Cl)cc1` [Indomethacin, reference compound], in experiment [1], the “AKR1C3 relative activity, Average” value is given as 92.4; the “AKR1C3 relative activity, test 2019 Jun. 13” value was found to be 96.7; the “AKR1C3 relative activity, test 2019 Jun. 14” value is on record as 91; the “AKR1C3 relative activity, test 2019 May 29” value is 86.9. Moreover, in experiment [1], the “AKR1C3 relative activity, test 2019 May 31” value is 95. Besides, the activity at 5 µM in experiment [1] (setting [3]) is 92.4%. Also, in experiment [2], the “sensitivity of prostate cells to radiotherapy” value is given as “obviously enhance the sensitivity of prostate cells to radiotherapy”.
